Test system: Plasmodium berghei
Assay: Luciferase/luciferin-expressing antifolate-resistant parasites were used to infect a culture of HepG2 cells that were pre-incubated with compounds. Infected hepatocytes emit light due to the luciferase reaction. Assay results are presented as the percent inhibition of light emission compared to control. […]
Format: functional
Conditions: sporozoite; for IC90: read-out: LUCIFERASE INFECTION ASSAY - IC90
[1] = read-out: LUCIFERASE INFECTION ASSAY - IC50

Structure (SMILES) | IC90 [µM] | other results
O=C(Nc1nonc1-c1cccs1)c1cccc(Cl)c1 | > 10.8 | IC50 (HEPG2TOX_HILL_SLOPE 10.4, HEPG2TOX_R_SQUARED 0.681, PBLUC_HILL_SLOPE 17.7, PBLUC_R_SQUARED 0.0482, read-out: LUCIFERASE INFECTION ASSAY - IC50): 9.87 µM
CC(C)(C)c1csc(NC(=O)C2CCCN2S(=O)(=O)c2ccc(Br)s2)n1 (configuration not stated) | > 10 | IC50 (PBLUC_HILL_SLOPE 9.23, PBLUC_R_SQUARED 0.508, read-out: LUCIFERASE INFECTION ASSAY - IC50): 9.84 µM
O=C(NCCC1=CCCCC1)c1cc2ccccc2c(=O)[nH]1 | > 10 | IC50 (HEPG2TOX_HILL_SLOPE 1.23, HEPG2TOX_R_SQUARED 0.699, PBLUC_HILL_SLOPE 12.6, PBLUC_R_SQUARED 0.339, read-out: LUCIFERASE INFECTION ASSAY - IC50): 9.57 µM
C/C=C/c1ccc(Oc2nc(C(F)(F)F)nc3ccccc23)c(OC)c1 | 6.79 | IC50 (HEPG2TOX_HILL_SLOPE 2.94, HEPG2TOX_R_SQUARED 0.97, PBLUC_HILL_SLOPE 2.81, PBLUC_R_SQUARED 0.724, read-out: LUCIFERASE INFECTION ASSAY - IC50): 3.1 µM
CCOC(=O)NC(=O)/C(C#N)=N/Nc1ccccc1 | 0.557 | IC50 (PBLUC_HILL_SLOPE 2.22, PBLUC_R_SQUARED 0.599, read-out: LUCIFERASE INFECTION ASSAY - IC50): 0.207 µM
Cc1ccc(Sc2ncccc2C(=O)Nc2nc3c(s2)CCCC3)cc1 | 3.95 | IC50 [1]: 3.38 µM
CC(C)(C)C1CCC2(CC1)NC(=O)N(CC(=O)OCC(=O)N1CCN(Cc3ccccc3)C1=O)C2=O (configuration not stated) | > 10 | IC50 [1]: > 10 µM
Cc1cccc(N2CCN(C(=O)c3cc4ccccc4o3)CC2C)c1 (configuration not stated) | > 10 | IC50 (PBLUC_HILL_SLOPE 1.92, PBLUC_R_SQUARED 0.443, read-out: LUCIFERASE INFECTION ASSAY - IC50): 4.83 µM
COc1cc(-n2cnc3cnc(Nc4cccc(C(F)(F)F)c4)cc32)cc(OC)c1OC | > 10 | IC50 [1]: > 10 µM
N#Cc1ccc(C(=O)Nc2cccc(Oc3ccccc3)c2)cc1 | > 10 | IC50 (PBLUC_HILL_SLOPE 3.19, PBLUC_R_SQUARED 0.12, read-out: LUCIFERASE INFECTION ASSAY - IC50): 6.33 µM
Cc1cc2oc(=O)cc(COC(=O)c3ccccc3NCCO)c2cc1C | 5.07 | IC50 (HEPG2TOX_HILL_SLOPE 8.75, HEPG2TOX_R_SQUARED 0.762, PBLUC_HILL_SLOPE 95.5, PBLUC_R_SQUARED 0.164, read-out: LUCIFERASE INFECTION ASSAY - IC50): 4.95 µM
CCCc1nc2ccccc2n1CC(=O)N1N=C(c2ccc(Cl)cc2)CC1c1ccco1 (configuration not stated) | > 10 | IC50 (PBLUC_HILL_SLOPE 1.73, PBLUC_R_SQUARED 0.265, read-out: LUCIFERASE INFECTION ASSAY - IC50): > 10 µM
CN(C)Cc1nc(O)c2c(n1)-c1ccccc1CC2(C)C | 4.32 | IC50 (PBLUC_HILL_SLOPE 13.2, PBLUC_R_SQUARED 0.272, read-out: LUCIFERASE INFECTION ASSAY - IC50): 3.66 µM
CC(C)Sc1nnc(CSc2nc3ccccc3s2)n1C | 3.94 | IC50 (PBLUC_HILL_SLOPE 13.4, PBLUC_R_SQUARED 0.563, read-out: LUCIFERASE INFECTION ASSAY - IC50): 3.35 µM
c1ccc(NCc2ccc(-c3cn4c(-c5cccnc5)cnc4cn3)cc2)cc1 | 7.31 | IC50 (PBLUC_HILL_SLOPE 2.17, PBLUC_R_SQUARED 0.86, read-out: LUCIFERASE INFECTION ASSAY - IC50): 2.66 µM
c1ccc(NCc2ccc(-c3cn4c(-c5ccccc5)cnc4cn3)cc2)cc1 | > 8.77 | IC50 (FFLUC_HILL_SLOPE 2.57, FFLUC_R_SQUARED 0.0602, PBLUC_HILL_SLOPE 15.1, PBLUC_R_SQUARED 0.239, read-out: LUCIFERASE INFECTION ASSAY - IC50): 7.8 µM
COc1cccc(C(CNc2nc(C)nc3sc4c(c23)CCCCC4)N2CCCC2)c1 (configuration not stated) | > 10 | IC50 [1]: > 10 µM
Cc1cccc(NC(=O)c2ccc(Cl)c(S(=O)(=O)Nc3c(C)n(C)n(-c4ccccc4)c3=O)c2)n1 | > 10 | IC50 (PBLUC_HILL_SLOPE 1.97, PBLUC_R_SQUARED 0.221, read-out: LUCIFERASE INFECTION ASSAY - IC50): 9.2 µM
CC(c1cc2ccccc2o1)N(C)C(=O)Cc1ccccc1F (configuration not stated) | > 10 | IC50 [1]: > 10 µM
CCOc1ccccc1NC(=O)C(NCc1ccc(OC(F)F)cc1)c1ccccc1 (configuration not stated) | 4.47 | IC50 (HEPG2TOX_HILL_SLOPE 2.27, HEPG2TOX_R_SQUARED 0.924, PBLUC_HILL_SLOPE 9.94, PBLUC_R_SQUARED 0.658, read-out: LUCIFERASE INFECTION ASSAY - IC50): 3.59 µM
O=C(C1CCCCC1)N1N=C2/C(=C/c3ccco3)CCCC2C1c1ccco1 (configuration not stated) | > 10 | IC50 [1]: > 10 µM

Structure (SMILES) | IC90 [µM] | other results
O=C(NC1CC1)c1ccc(-c2cnc3c(NCc4ccco4)nccn23)cc1 | 3.44 | IC50 (HEPG2TOX_HILL_SLOPE 10.4, HEPG2TOX_R_SQUARED 0.433, PBLUC_HILL_SLOPE 17.4, PBLUC_R_SQUARED 0.253, read-out: LUCIFERASE INFECTION ASSAY - IC50): 3.03 µM
CC1=CC(C)(C)N(C(=O)c2ccc(F)cc2)c2cc3c(cc21)OCO3 | > 9.72 | IC50 (PBLUC_HILL_SLOPE 1.83, PBLUC_R_SQUARED 0.549, read-out: LUCIFERASE INFECTION ASSAY - IC50): 6.14 µM
O=C(Nc1ccc(Cl)c(Cl)c1)OCCNC(=O)c1cccc(S(=O)(=O)N2CCCC2)c1 | 9.3 | IC50 (HEPG2TOX_HILL_SLOPE 9.3, HEPG2TOX_R_SQUARED 0.805, PBLUC_HILL_SLOPE 3.66, PBLUC_R_SQUARED 0.453, read-out: LUCIFERASE INFECTION ASSAY - IC50): 5.1 µM
NC(=O)c1ccc(-c2cc(-c3ccc(F)cc3)cnc2N)cc1 | 2.33 | IC50 (HEPG2TOX_HILL_SLOPE 8.28, HEPG2TOX_R_SQUARED 0.58, PBLUC_HILL_SLOPE 436, PBLUC_R_SQUARED 0.522, read-out: LUCIFERASE INFECTION ASSAY - IC50): 2.32 µM
CC(C)Oc1ccc(S(=O)(=O)N2CCOCC2)cc1NC(=O)c1cc(-c2ccccc2)n[nH]1 | 4.44 | IC50 (HEPG2TOX_HILL_SLOPE 13.1, HEPG2TOX_R_SQUARED 0.378, PBLUC_HILL_SLOPE 12.6, PBLUC_R_SQUARED 0.276, read-out: LUCIFERASE INFECTION ASSAY - IC50): 3.73 µM
FC(F)(F)Oc1cccc(-c2cnc3sc(NCCc4ccncc4)nn23)c1 | > 8.14 | IC50 (HEPG2TOX_HILL_SLOPE 1.76, HEPG2TOX_R_SQUARED 0.88, read-out: LUCIFERASE INFECTION ASSAY - IC50): > 8.14 µM
CCn1nnc2cc(C(=O)Nc3cc(C(F)(F)F)ccc3N(C)C)ccc21 | 7.74 | IC50 (PBLUC_HILL_SLOPE 154, PBLUC_R_SQUARED 0.344, read-out: LUCIFERASE INFECTION ASSAY - IC50): 7.63 µM
CCOc1ccc(NC(=O)c2ccccc2NC(=O)COC(=O)/C(=C/c2cc(OC)c(OC)c(OC)c2)c2ccc(-c3ccccc3)cc2)cc1 | > 10 | IC50 (FFLUC_HILL_SLOPE 2.07, FFLUC_R_SQUARED 0.755, PBLUC_HILL_SLOPE 3.07, PBLUC_R_SQUARED 0.285, read-out: LUCIFERASE INFECTION ASSAY - IC50): 6.17 µM
Cc1nn(-c2ccc(Cl)cc2)c2sc(C(=O)NC(C)(C)CC(C)(C)C)cc12 | > 10 | IC50 [1]: > 10 µM
CNc1nc2cnc(Nc3ccc(C(F)(F)F)cc3)cc2n1CC1CC1 | > 10 | IC50 (PBLUC_HILL_SLOPE 1.2, PBLUC_R_SQUARED 0.377, read-out: LUCIFERASE INFECTION ASSAY - IC50): 2.12 µM
O=C(c1[nH]nc2ccccc12)N1CCN(CCOc2ccc(Cl)cc2)CC1 | > 10 | IC50 (HEPG2TOX_HILL_SLOPE 12.2, HEPG2TOX_R_SQUARED 0.374, PBLUC_HILL_SLOPE 13.5, 22.4, PBLUC_R_SQUARED 0.492, 0.389, read-out: LUCIFERASE INFECTION ASSAY - IC50): 9.12 µM
Cc1cc2occ(CC(=O)Nc3sccc3C(N)=O)c2cc1C(C)C | 4.1 | IC50 (HEPG2TOX_HILL_SLOPE 3.18, 2.30, HEPG2TOX_R_SQUARED 0.297, 0.732, PBLUC_HILL_SLOPE 15.1, PBLUC_R_SQUARED 0.252, read-out: LUCIFERASE INFECTION ASSAY - IC50): 3.55 µM
O=C(NNC(=O)c1ccccn1)c1ccc(C2SCCCS2)cc1 | > 10 | IC50 (FFLUC_HILL_SLOPE 16.5, FFLUC_R_SQUARED 0.524, PBLUC_HILL_SLOPE 17.5, PBLUC_R_SQUARED 0.078, read-out: LUCIFERASE INFECTION ASSAY - IC50): 9.07 µM
Cc1cccc(Cn2nc(C(C)(C)C)cc2-c2nnc(SCC(=O)c3ccc(Cl)cc3)o2)c1 | > 6.86 | IC50 (FFLUC_HILL_SLOPE 7.72, FFLUC_R_SQUARED 0.435, PBLUC_HILL_SLOPE 3.63, PBLUC_R_SQUARED 0.42, read-out: LUCIFERASE INFECTION ASSAY - IC50): 6.23 µM
N#CCOc1cc(Cl)cc(Cl)c1 | > 16.3 | IC50 (FFLUC_HILL_SLOPE 1.89, FFLUC_R_SQUARED 0.0257, read-out: LUCIFERASE INFECTION ASSAY - IC50): > 16.3 µM
Fc1ccc(NC(=S)NN=C2c3ccccc3-c3ccccc32)c(F)c1 | > 10 | IC50 [1]: > 10 µM
COc1cccc2cc(/C=C/c3nc4ccccc4s3)oc12 | 4.1 | IC50 (PBLUC_HILL_SLOPE 8.93, PBLUC_R_SQUARED 0.0906, read-out: LUCIFERASE INFECTION ASSAY - IC50): 3.2 µM
CNc1snc(C)c1C(=O)OCc1ccc([N+](=O)[O-])cc1 | > 10 | IC50 [1]: > 10 µM
O=C(COc1cccc(Br)c1)N/N=C/C1=C(N2CCOCC2)C(=C/c2ccc(Cl)cc2)/CC1 | > 10 | IC50 [1]: > 10 µM
CCC(C)(C)c1ccc(Oc2ccc(NC(=O)COC(=O)C3=COCCO3)cc2)cc1 | > 10 | IC50 (PBLUC_HILL_SLOPE 2.38, PBLUC_R_SQUARED 0.497, read-out: LUCIFERASE INFECTION ASSAY - IC50): 5.8 µM
